# In ChEMBL document CHEMBL4316596, “Antimicrobial Peptides with High Proteolytic Resistance for Combating Gram-Negative Bacteria” (J Med Chem, 2019):
# The source made the active and inactive calls. The rule behind the calls is not given here.
# Tests used:
# Escherichia coli [1] = assay: Induction of outer membrane permeabilization in Escherichia coli ATCC 25922 at 1 uM by NPN-dye based assay relative to control
# [2] = Stability of the compound assessed as Tritirachium album proteinase K-mediated compound hydrolysis after 1 hrs by SDS-PAGE analysis; type: ADME; details: parengyodontium album
# Pseudomonas aeruginosa = assay: Ratio of MBC against Pseudomonas aeruginosa ATCC 27853 after 50 passages to MBC against Pseudomonas aeruginosa ATCC 27853; type: functional
# Trypsin = Trypsin (Homo sapiens, UniProt P07477+P07478+P35030); assay: Stability of the compound assessed as trypsin (unknown origin)-mediated compound hydrolysis after 1 hrs by SDS-PAGE analysis; type: ADME, protein assay
# Chymotrypsin = Chymotrypsin (Homo sapiens, UniProt Q99895+P17538+P40313+Q6GPI1); assay: Stability of the compound assessed as chymotrypsin (unknown origin)-mediated compound hydrolysis after 1 hrs by SDS-PAGE analysis; type: ADME, protein assay
# [3] = Stability of the compound assessed as pepsin (unknown origin)-mediated compound hydrolysis after 1 hrs by SDS-PAGE analysis; type: ADME; details: human
# RAW264.7 [4] = assay: Inhibition of LPS-stimulated TNFalpha production in mouse RAW264.7 cells at 16 uM after 20 hrs by […]; type: functional, cell-based
# Escherichia coli [5] = assay: Induction of membrane disruption in Escherichia coli ATCC 25922 assessed as pore formation at MBC after 1 hr by SEM analysis; type: functional, organism-based
# [6] = Toxicity in ICR mouse assessed as effect on AST levels in serum at 20 mg/kg, ip administered every 12 hrs for 3 days measured at 72 hrs post dose; type: organism-based; details: in vivo
# Lipid bilayer [7] = assay: Induction of membrane disruption in POPC/POPG unilamellar vesicles assessed as calcein-entrapped liposome leakage at 1 to 64 uM after 15 mins by fluorescence assay
# Escherichia coli [8] = assay: Bactericidal activity against Escherichia coli ATCC 25922 using FITC-labelled peptide incubated for 4 hrs followed by culture spread on agar plates and cultured overnight; type: functional; details: ATCC 25922, 4 h
# Lipid bilayer [9] = assay: Induction of membrane disruption in LPS/POPC/POPG unilamellar vesicles assessed as calcein-entrapped liposome leakage after 15 mins by fluorescence assay
# [10] = Cytotoxicity against mouse RAW264.7 cells assessed as survival rate at 16 uM after 18 to 24 hrs by MTT assay relative to control; type: cell-based; details: read-out: Activity
# Escherichia coli [11] = assay: Induction of membrane disruption in Escherichia coli ATCC 25922 assessed as formation of broken membrane fragments at MBC after 1 hr by SEM analysis; type: functional, organism-based
# Escherichia coli [12] = assay: Induction of membrane disruption in Escherichia coli ATCC 25922 assessed as outer membrane separation at MBC after 1 hr by TEM analysis; type: functional, organism-based
# Escherichia coli [13] = assay: Induction of cell membrane disruption in Escherichia coli ATCC 25922 at MBC after 30 mins using FITC-labelled peptides by propidium iodide-staining based confocal fluorescent microscopy; type: organism-based
# Escherichia coli [14] = assay: Bactericidal activity against Escherichia coli ATCC 25922 assessed as elimination of bacterial cells at MBC after 60 mins by time kill assay; type: functional
# [15] = Stability of the compound assessed as Tritirachium album proteinase K-mediated compound hydrolysis by LC-MS analysis; type: ADME; details: parengyodontium album
# Escherichia coli [16] = assay: Induction of membrane disruption in Escherichia coli ATCC 25922 assessed as membrane content leakage at MBC after 1 hr by SEM analysis; type: functional, organism-based
# Lipid bilayer [17] = assay: Induction of membrane disruption in LPS/PC/PG unilamellar vesicles assessed as calcein-entrapped liposome leakage at 2 uM after 15 mins by fluorescence assay
# [18] = Stability of the compound assessed as pepsin (unknown origin)-mediated compound hydrolysis by LC-MS analysis; type: ADME; details: human
# Lipopolysaccharide (LPS) [19] = assay: Displacement of BODIPY-TR-cadaverine from Escherichia coli O111:B4 LPS at 4 uM after 1 hr by spectrofluorophotometric method relative to control
# [20] = Drug localisation at cell membrane of Escherichia coli ATCC 25922 at MBC after 30 mins using FITC-labelled peptides by propidium iodide-staining based confocal fluorescent microscopy; type: ADME, cell membranes; details: 0.5 h
# Escherichia coli [21] = assay: Induction of cytoplasmic membrane depolarization in Escherichia coli ATCC 25922 assessed as induction cytoplasmic ONPG release at 4 uM up to 120 mins by DiSC3-5 dye-based fluorescence spectrophotometric method; type: functional, organism-based
# Escherichia coli [22] = assay: Induction of membrane disruption in Escherichia coli ATCC 25922 assessed as pore formation at MBC after 1 hr by TEM analysis; type: functional, organism-based
# [23] = Renal toxicity in ICR mouse assessed as effect on BUN levels in serum at 20 mg/kg, ip administered every 12 hrs for 3 days measured at 72 hrs post dose; type: organism-based; details: in vivo
# [24] = Toxicity in ICR mouse assessed as effect on ALT levels in serum at 40 mg/kg, ip administered every 12 hrs for 3 days measured at 72 hrs post dose; type: organism-based; details: in vivo
# [25] = Toxicity in ICR mouse assessed as effect on ALT levels in serum at 20 mg/kg, ip administered every 12 hrs for 3 days measured at 72 hrs post dose; type: organism-based; details: in vivo
# Escherichia coli [26] = assay: Induction of membrane disruption in Escherichia coli ATCC 25922 assessed as sparse cytoplasmic distribution at MBC after 1 hr by TEM analysis; type: functional, organism-based
# [27] = Renal toxicity in ICR mouse assessed as effect on BUN levels in serum at 40 mg/kg, ip administered every 12 hrs for 3 days measured at 72 hrs post dose; type: organism-based; details: in vivo
# Escherichia coli [28] = assay: Bactericidal activity against Escherichia coli O111:B4 assessed as reduction in colony forming units at MBC after 90 mins in presence of LPS; type: functional, organism-based
# RAW264.7 [29] = assay: Inhibition of LPS-stimulated NO production in mouse RAW264.7 cells at 16 uM after 20 hrs by Griess reagent-based assay; type: functional, cell-based
# [30] = Toxicity in ICR mouse assessed as effect on AST levels in serum at 40 mg/kg, ip administered every 12 hrs for 3 days measured at 72 hrs post dose; type: organism-based; details: in vivo
# Lipopolysaccharide (LPS) [31] = assay: Binding affinity to Escherichia coli O111:B4 LPS by SPR method
# Lipopolysaccharide (LPS) [32] = assay: Displacement of BODIPY-TR-cadaverine from Escherichia coli O111:B4 LPS after 1 hr by spectrofluorophotometric method
# Escherichia coli [33] = assay: Bactericidal activity against Escherichia coli ATCC 25922 assessed as elimination of bacterial cells at MBC after 30 mins by time kill assay; type: functional
# [34] = Hemolytic activity against human RBC at 128 uM after 1 hr; type: ADME, cell-based, Erythrocyte; details: red blood cells (erythrocytes), read-out: Activity
# [35] = Cytotoxicity against IPECJ2 cells assessed as cell death at 16 uM after 18 to 24 hrs by MTT assay relative to control; type: cell-based, Sus scrofa; details: pig
# Escherichia coli [36] = assay: Bactericidal activity against Escherichia coli ATCC 25922 assessed as elimination of bacterial cells at MBC after 5 mins by time kill assay; type: functional
# [37] = Cytotoxicity against mouse RAW264.7 cells assessed as cell viability at 4 uM after 18 to 24 hrs by MTT assay relative to control; type: cell-based; details: read-out: Activity
# HEK-293T = assay: Cytotoxicity against HEK293T cells assessed as cell death at 32 uM after 18 to 24 hrs by MTT assay relative to control; type: cell-based; details: human
compound,measurement,setting,value
CC[C@H](C)[C@H](NC(=O)CN)C(=O)NCC(=O)N[C@@H](C)C(=O)N[C@H](C(=O)N[C@@H](CC(C)C)C(=O)N[C@@H](CCCCN)C(=O)N[C@H](C(=O)N[C@@H](CC(C)C)C(=O)N[C@H](C(=O)N[C@H](C(=O)NCC(=O)N[C@@H](CC(C)C)C(=O)N1CCC[C@H]1C(=O)N[C@@H](C)C(=O)N[C@@H](CC(C)C)C(=O)N[C@H](C(=O)N[C@@H](CO)C(=O)N[C@@H](Cc1c[nH]c2ccccc12)C(=O)N[C@H](C(=O)N[C@@H](CCCCN)C(=O)N[C@@H](CCCNC(=N)N)C(=O)N[C@@H](CCCCN)C(=O)N[C@@H](CCCNC(=N)N)C(=O)N[C@@H](CCC(N)=O)C(=O)N[C@@H](CCC(N)=O)C(N)=O)[C@@H](C)CC)[C@@H](C)CC)[C@@H](C)O)[C@@H](C)O)C(C)C)C(C)C [MELITTIN],Activity,Escherichia coli [1],Active
same,Stability,[2],Unstable
same,Ratio,Pseudomonas aeruginosa,256
same,Stability,Trypsin,Unstable
same,Stability,Chymotrypsin,Unstable
same,Stability,[3],Unstable
H-IRPIIRPIIRPIIRPIIRPIIRPIIRPI-NH2,inhibition,RAW264.7 [4],Active
same,Activity,Escherichia coli [5],Active
same,Activity,[6],Toxic
same,Activity,Lipid bilayer [7],Active
same,MBC,Escherichia coli [8],4 µM
same,Activity,Lipid bilayer [9],Dose-dependent effect
same,viability at 16 µM,[10],> 80%
same,Activity,Escherichia coli [11],Active
same,Activity,Escherichia coli [12],Active
same,Activity,Escherichia coli [1],>50%
same,Activity,Escherichia coli [13],Active
same,Activity,Escherichia coli [14],>99.99%
same,Stability,[15],Stable
same,Activity,Escherichia coli [16],Active
same,Activity,Lipid bilayer [17],30%
same,Stability,[18],Stable
same,Activity,Lipopolysaccharide (LPS) [19],70%
same,Drug uptake,[20],Active
same,Activity,Escherichia coli [21],Active
same,Activity,Escherichia coli [22],Active
same,Activity,[23],Toxic
same,Activity,[24],Non-Toxic
same,Activity,[25],Toxic
same,Activity,Escherichia coli [26],Active
same,Activity,[27],Non-Toxic
same,Activity,Escherichia coli [28],inactive
same,inhibition,RAW264.7 [29],Active
same,Activity,[30],Non-Toxic
same,Activity,Lipopolysaccharide (LPS) [31],Dose-dependent effect
same,Activity,Lipopolysaccharide (LPS) [32],Dose-dependent effect
H-LKPLLKPLLKPLLKPLLKPLLKPLLKPL-NH2,Activity,Escherichia coli [33],>99.99%
H-LRPLLRPLLRPLLRPLLRPLLRPLLRPL-NH2,"hemolysis at 1 h, 128 µM",[34],> 40%
same,Activity,[35],80%
same,Activity,Escherichia coli [36],>99.99%
same,viability at 4 µM,[37],7.52%
same,Activity,HEK-293T,80%
